In ChEMBL document CHEMBL3885881, “DrugMatrix”:

Organism: Rattus norvegicus
Test: DrugMatrix - Regimen: Daily Repeat
Assay type: toxicity, organism-based, Sprague-Dawley
Design: regimen Daily Repeat, gender Male, age 6-8 weeks
Details: in vivo, po, route oral GAVAGE, […]; for ABSOLUTE BASOPHIL / ABSOLUTE EOSINOPHIL / ABSOLUTE LYMPHOCYTE / ABSOLUTE MONOCYTE / ABSOLUTE SEGMENTED NEUTROPHIL / BASOPHIL / EOSINOPHIL / ERYTHROCYTE COUNT / HEMATOCRIT / HEMOGLOBIN / LEUKOCYTE COUNT / LYMPHOCYTE / MEAN CORPUSCULAR HEMOGLOBIN / MEAN CORPUSCULAR HEMOGLOBIN CONCENTRATION / MEAN CORPUSCULAR VOLUME / MONOCYTE / NEUTROPHIL / NUCLEATED RED BLOOD CELLS / PLATELET COUNT: tissue Blood; for ALANINE AMINOTRANSFERASE / ALBUMIN / ALKALINE PHOSPHATASE / ASPARTATE AMINOTRANSFERASE / BLOOD UREA NITROGEN / CARBON DIOXIDE / CHLORIDE / CHOLESTEROL / CREATINE PHOSPHOKINASE / CREATININE / GLUCOSE / LACTATE DEHYDROGENASE / LIPASE / PHOSPHORUS / POTASSIUM / SODIUM / TOTAL BILIRUBIN / TOTAL PROTEIN / URIC ACID: tissue Plasma
[1] = 100 mg/kg, 120 h, dose level Low, time 5 day
[2] = 972 mg/kg, 72 h, dose level High, time 3 day
[3] = 972 mg/kg, 120 h, dose level High, time 5 day

## CC(=O)Nc1ccc(O)cc1 [ACETAMINOPHEN]
[1]
  ABSOLUTE BASOPHIL: 0 CELLS/uL
  ABSOLUTE EOSINOPHIL: 65 CELLS/uL
  ABSOLUTE LYMPHOCYTE: 8879.67 CELLS/uL
  ABSOLUTE MONOCYTE: 40.33 CELLS/uL
  ABSOLUTE SEGMENTED NEUTROPHIL: 548.33 CELLS/uL
  BASOPHIL: 0%
  EOSINOPHIL: 0.67%
  ERYTHROCYTE COUNT: 5.47 x10E6/uL
  HEMATOCRIT: 34.53%
  HEMOGLOBIN: 13.27 G/DL
  LEUKOCYTE COUNT: 9.53 x10E3/uL
  LYMPHOCYTE: 93.67%
  MEAN CORPUSCULAR HEMOGLOBIN: 24.27 pg
  MEAN CORPUSCULAR HEMOGLOBIN CONCENTRATION: 38.43 G/DL
  MEAN CORPUSCULAR VOLUME: 63.13 fL
  MONOCYTE: 0.33%
  NEUTROPHIL: 5.33%
  NUCLEATED RED BLOOD CELLS: 0 /100WBC
  PLATELET COUNT: 1237.33 x10E3/uL
  ALANINE AMINOTRANSFERASE: 58.33 u/L
  ALBUMIN: 4.3 G/DL
  ALKALINE PHOSPHATASE: 341.67 u/L
  ASPARTATE AMINOTRANSFERASE: 84 u/L
  BLOOD UREA NITROGEN: 14 mg/dL
  CARBON DIOXIDE: 27.33 mmol/L
  CHLORIDE: 98.33 MEQ/L
  CHOLESTEROL: 81.33 mg/dL
  CREATINE PHOSPHOKINASE: 273 u/L
  CREATININE: 0.18 mg/dL
  GLUCOSE: 158.67 mg/dL
  LACTATE DEHYDROGENASE: 79.67 u/L
  LIPASE: 10 u/L
  PHOSPHORUS: 9.17 mg/dL
  POTASSIUM: 5.75 MEQ/L
  SODIUM: 143.87 MEQ/L
  TOTAL BILIRUBIN: 0.23 mg/dL
  TOTAL PROTEIN: 6.27 G/DL
  URIC ACID: 0.77 mg/dL
[2]
  ABSOLUTE BASOPHIL: 0 CELLS/uL
  ABSOLUTE EOSINOPHIL: 0 CELLS/uL
  ABSOLUTE LYMPHOCYTE: 8609 CELLS/uL
  ABSOLUTE MONOCYTE: 158.2 CELLS/uL
  ABSOLUTE SEGMENTED NEUTROPHIL: 1212.8 CELLS/uL
  BASOPHIL: 0%
  EOSINOPHIL: 0%
  ERYTHROCYTE COUNT: 5.94 x10E6/uL
  HEMATOCRIT: 36.4%
  HEMOGLOBIN: 13.62 G/DL
  LEUKOCYTE COUNT: 9.98 x10E3/uL
  LYMPHOCYTE: 85.6%
  MEAN CORPUSCULAR HEMOGLOBIN: 22.9 pg
  MEAN CORPUSCULAR HEMOGLOBIN CONCENTRATION: 37.44 G/DL
  MEAN CORPUSCULAR VOLUME: 61.28 fL
  MONOCYTE: 2%
  NEUTROPHIL: 12.4%
  NUCLEATED RED BLOOD CELLS: 0 /100WBC
  PLATELET COUNT: 1006.4 x10E3/uL
  ALANINE AMINOTRANSFERASE: 85 u/L
  ALBUMIN: 4.4 G/DL
  ALKALINE PHOSPHATASE: 536.6 u/L
  ASPARTATE AMINOTRANSFERASE: 123.8 u/L
  BLOOD UREA NITROGEN: 14 mg/dL
  CARBON DIOXIDE: 31.2 mmol/L
  CHLORIDE: 99.67 MEQ/L
  CHOLESTEROL: 76.2 mg/dL
  CREATINE PHOSPHOKINASE: 298.8 u/L
  CREATININE: 0.19 mg/dL
  GLUCOSE: 161 mg/dL
  LACTATE DEHYDROGENASE: 128 u/L
  LIPASE: 10.8 u/L
  PHOSPHORUS: 10.82 mg/dL
  POTASSIUM: 5.81 MEQ/L
  SODIUM: 143.6 MEQ/L
  TOTAL BILIRUBIN: 0.14 mg/dL
  TOTAL PROTEIN: 6.04 G/DL
  URIC ACID: 0.68 mg/dL
[3]
  ABSOLUTE BASOPHIL: 0 CELLS/uL
  ABSOLUTE EOSINOPHIL: 17.8 CELLS/uL
  ABSOLUTE LYMPHOCYTE: 10212.2 CELLS/uL
  ABSOLUTE MONOCYTE: 135.4 CELLS/uL
  ABSOLUTE SEGMENTED NEUTROPHIL: 1674.6 CELLS/uL
  BASOPHIL: 0%
  EOSINOPHIL: 0.2%
  ERYTHROCYTE COUNT: 6.63 x10E6/uL
  HEMATOCRIT: 40.4%
  HEMOGLOBIN: 14.86 G/DL
  LEUKOCYTE COUNT: 12.04 x10E3/uL
  LYMPHOCYTE: 85.2%
  MEAN CORPUSCULAR HEMOGLOBIN: 22.46 pg
  MEAN CORPUSCULAR HEMOGLOBIN CONCENTRATION: 36.82 G/DL
  MEAN CORPUSCULAR VOLUME: 61 fL
  MONOCYTE: 1.2%
  NEUTROPHIL: 13.4%
  NUCLEATED RED BLOOD CELLS: 0 /100WBC
  PLATELET COUNT: 1437.6 x10E3/uL
  ALANINE AMINOTRANSFERASE: 100 u/L
  ALBUMIN: 4.46 G/DL
  ALKALINE PHOSPHATASE: 485.6 u/L
  ASPARTATE AMINOTRANSFERASE: 108.4 u/L
  BLOOD UREA NITROGEN: 14.2 mg/dL
  CARBON DIOXIDE: 29 mmol/L
  CHLORIDE: 104 MEQ/L
  CHOLESTEROL: 71.6 mg/dL
  CREATINE PHOSPHOKINASE: 328.8 u/L
  CREATININE: 0.17 mg/dL
  GLUCOSE: 154 mg/dL
  LACTATE DEHYDROGENASE: 199.2 u/L
  LIPASE: 9.8 u/L
  PHOSPHORUS: 13.5 mg/dL
  POTASSIUM: 6.73 MEQ/L
  SODIUM: 144.74 MEQ/L
  TOTAL BILIRUBIN: 0.22 mg/dL
  TOTAL PROTEIN: 6.42 G/DL
  URIC ACID: 3.3 mg/dL
